Assay results reported in the supplement of paper PMC10307832.

Legend:
Experiment in all cases: relative viability (nuclei count vs DMSO), 5 days (fraction); higher = more cells survive
XMD13-2 + AZD7762 = compound: C1CC1C(=O)NC2=NNC3=C2C=CC(=C3)C4=CC(=CC=C4)C(=O)NC5CC5 [XMD13-2] + NC(=O)Nc1cc(-c2cccc(F)c2)sc1C(=O)N[C@H]1CCCNC1 [AZD7762] (partner 0.2 µM)
How it was run: (§1)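 Values are medians from duplicate plates. Each reflects relative viability, defined as the nuclei count of treated wells over that of vehicle wells. Lung cancer cell lines in 1536-well plates were pin-tool dosed one day after seeding with one drug alone or with a fixed anchor-drug dose plus five library-drug doses (not always all listed) in √10 steps, then fixed, stained and imaged at 4× after 5 days.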

Dasatinib + Pictilisib = compound: Cc1nc(Nc2ncc(C(=O)Nc3c(C)cccc3Cl)s2)cc(N2CCN(CCO)CC2)n1 [Dasatinib] + CS(=O)(=O)N1CCN(Cc2cc3nc(-c4cccc5[nH]ncc45)nc(N4CCOCC4)c3s2)CC1 [Pictilisib] (partner 1 µM)
How it was run: as §1

XMD13-2 + Vorinostat = compound: C1CC1C(=O)NC2=NNC3=C2C=CC(=C3)C4=CC(=CC=C4)C(=O)NC5CC5 [XMD13-2] + O=C(CCCCCCC(=O)Nc1ccccc1)NO [Vorinostat] (partner 1 µM)
How it was run: as §1

ALW-II-49-7 + Dasatinib = compound: Cc1ccc(C(=O)Nc2cccc(C(F)(F)F)c2)cc1Nc1cncc(C(N)=O)c1 [ALW-II-49-7] + Cc1nc(Nc2ncc(C(=O)Nc3c(C)cccc3Cl)s2)cc(N2CCN(CCO)CC2)n1 [Dasatinib] (partner 0.075 µM)
How it was run: as §1

Cell Line	relative viability (XMD13-2 + AZD7762; first compound 0.05 µM)	relative viability (XMD13-2 + AZD7762; first compound 0.1581 µM)	relative viability (XMD13-2 + AZD7762; first compound 0.5 µM)	relative viability (XMD13-2 + AZD7762; first compound 5 µM)	relative viability (Dasatinib + Pictilisib; first compound 0.005 µM)	relative viability (Dasatinib + Pictilisib; first compound 0.01581 µM)	relative viability (Dasatinib + Pictilisib; first compound 0.05 µM)	relative viability (Dasatinib + Pictilisib; first compound 0.1581 µM)	relative viability (Dasatinib + Pictilisib; first compound 0.5 µM)	relative viability (XMD13-2 + Vorinostat; first compound 0.05 µM)	relative viability (XMD13-2 + Vorinostat; first compound 0.1581 µM)	relative viability (XMD13-2 + Vorinostat; first compound 0.5 µM)	relative viability (XMD13-2 + Vorinostat; first compound 1.581 µM)	relative viability (XMD13-2 + Vorinostat; first compound 5 µM)	relative viability (ALW-II-49-7 + Dasatinib; first compound 0.08 µM)	relative viability (ALW-II-49-7 + Dasatinib; first compound 0.253 µM)	relative viability (ALW-II-49-7 + Dasatinib; first compound 0.8 µM)	relative viability (ALW-II-49-7 + Dasatinib; first compound 2.53 µM)	relative viability (ALW-II-49-7 + Dasatinib; first compound 8 µM)	relative viability (XMD13-2 + AZD7762; first compound 1.581 µM)
NCI-H1703	0.124	0.131	0.125	0.116	0.2	0.195	0.203	0.179	0.169	–	–	–	–	–	–	–	–	–	–	–
NCI-H1650	–	–	–	–	0.481	0.277	0.259	0.215	0.199	0.661	0.584	0.576	0.594	0.555	0.273	0.306	0.323	0.282	0.341	–
NCI-H2009	–	–	–	–	0.705	0.503	0.41	0.193	0.124	0.838	0.732	0.835	0.783	0.804	0.284	0.29	0.289	0.264	0.252	–
COR-L23	–	–	–	–	0.714	0.608	0.744	0.34	0.207	0.58	0.566	0.737	0.368	0.544	0.483	0.419	0.45	0.443	0.523	–
NCI-H522	1.08	0.728	0.7	0.692	–	–	–	–	–	0.856	0.873	0.805	0.982	0.907	0.979	0.81	1.05	0.772	0.987	0.737
NCI-H1563	–	–	–	–	0.66	0.564	0.584	0.597	0.558	–	–	–	–	–	0.442	0.466	0.441	0.477	0.486	–
SW 900	0.741	0.587	0.679	0.835	–	–	–	–	–	0.721	0.42	0.501	0.45	0.623	0.607	0.565	0.559	0.565	0.478	0.467
NCI-H1792	0.854	0.78	0.762	0.846	0.317	0.222	0.234	0.128	0.0699	–	–	–	–	–	0.896	0.757	0.876	0.355	0.732	0.634
SK-LU-1	–	–	–	–	0.369	0.312	0.244	0.201	0.174	0.874	0.831	0.959	0.719	0.74	0.17	0.207	0.206	0.175	0.197	–
NCI-H2228	–	–	–	–	0.361	0.289	0.273	0.215	0.212	0.642	0.573	0.507	0.76	0.752	0.57	0.391	0.509	0.538	0.455	–
NCI-H1623	–	–	–	–	–	–	–	–	–	–	–	–	–	–	0.465	0.531	0.618	0.532	0.479	–
IA-LM	–	–	–	–	0.416	0.312	0.378	0.276	0.257	0.954	1.05	0.96	–	0.718	–	–	–	–	–	–
EBC-1	–	–	–	–	0.329	0.231	0.216	0.181	0.204	–	–	–	–	–	–	–	–	–	–	–
NCI-H1299	–	–	–	–	0.676	0.359	0.313	0.091	0.0817	–	–	–	–	–	–	–	–	–	–	–
